# Results as given in PubChem BioAssay AID256 (DTP/NCI, 2004).
# “And” between values parts separate entries of the source, which are not always exact repeats. Identical values can stand only once. Toxic doses and inconclusive results are not listed.
# Tested on: CD2F1 mice, L1210 leukemia ip, survival T/C
# Assay: NCI In Vivo Anticancer Drug Screen. Data for tumor model L1210 Leukemia (intraperitoneal) in CD2F1 (CDF1) mice
# Conditions: higher = longer survival
# Outline: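 Compound-dosed mice with transplantable tumor versus matched vehicle controls; endpoint ratio T/C reported.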
# [1] = endpoint: mean survival time, dose: 100.0 mg/kg/injection, schedule: Q04DX003 (ip), vehicle: saline with Tween-80
# [2] = endpoint: mean survival time, dose: 200.0 mg/kg/injection, schedule: Q04DX003 (ip), vehicle: saline with Tween-80
# [3] = endpoint: mean survival time, dose: 25.0 mg/kg/injection, schedule: Q01DX009 (ip), vehicle: saline
# [4] = endpoint: mean survival time, dose: 50.0 mg/kg/injection, schedule: Q01DX009 (ip), vehicle: saline with Tween-80
# [5] = endpoint: mean survival time, dose: 100.0 mg/kg/injection, schedule: Q01DX009 (ip), vehicle: saline with Tween-80
# [6] = endpoint: mean survival time, dose: 200.0 mg/kg/injection, schedule: Q01DX009 (ip), vehicle: saline with Tween-80
# [7] = endpoint: mean survival time, dose: 100.0 mg/kg/injection, schedule: Q01DX009 (ip), vehicle: saline
# [8] = endpoint: mean survival time, dose: 200.0 mg/kg/injection, schedule: Q01DX009 (ip), vehicle: saline
# [9] = endpoint: mean survival time, dose: 75.0 mg/kg/injection, schedule: Q01DX001 (ip), vehicle: saline
# [10] = endpoint: mean survival time, dose: 150.0 mg/kg/injection, schedule: Q01DX001 (ip), vehicle: saline
# [11] = endpoint: mean survival time, dose: 400.0 mg/kg/injection, schedule: Q01DX009 (ip), vehicle: saline with Tween-80
compound,measurement,setting,value
NCCc1ccccn1,T/C,[1],96 % of control
same,T/C,[2],101 % of control
C=CCS(=O)(=O)Cc1ccc([N+](=O)[O-])cc1,T/C,"endpoint: mean survival time, dose: 100.0 mg/kg/injection, schedule: Q04DX002 (ip), vehicle: Klucel (hydroxypropylcellulose) (HPC)",105 % of control
same,T/C,"endpoint: mean survival time, dose: 200.0 mg/kg/injection, schedule: Q04DX002 (ip), vehicle: Klucel (hydroxypropylcellulose) (HPC)",94 % of control
same,T/C,"endpoint: mean survival time, dose: 400.0 mg/kg/injection, schedule: Q04DX002 (ip), vehicle: Klucel (hydroxypropylcellulose) (HPC)",105 % of control
ClCC(Cl)CN1CCCCC1 (stereo not given),T/C,[3],100 % of control
same,T/C,"endpoint: mean survival time, dose: 50.0 mg/kg/injection, schedule: Q01DX009 (ip), vehicle: saline",103 % of control
O=N[O-].O=N[O-].[NH-]CC[NH-].[Pt+2],T/C,"endpoint: mean survival time, dose: 25.0 mg/kg/injection, schedule: Q04DX003 (ip), vehicle: saline with Tween-80",101 % of control
same,T/C,"endpoint: mean survival time, dose: 50.0 mg/kg/injection, schedule: Q04DX003 (ip), vehicle: saline with Tween-80",98 % of control
same,T/C,[1],93 % of control
Cc1ccc(S(=O)(=O)SC(Cl)(Cl)Cl)cc1,T/C,"endpoint: mean survival time, dose: 12.5 mg/kg/injection, schedule: Q01DX009 (ip), vehicle: saline",94 % of control
same,T/C,[3],102 % of control
Clc1cc(Cl)cc(Nc2nc(C(Cl)(Cl)Cl)nc(C(Cl)(Cl)Cl)n2)c1,T/C,[4],98 % of control
same,T/C,[5],95 % of control
same,T/C,[1],89 % of control
same,T/C,[6],90 % of control
same,T/C,[2],86 % of control
CC(=O)OCC#CCOC(C)=O,T/C,[4],93 % of control
Nc1nc(Cl)nc(Cl)n1,T/C,"endpoint: mean survival time, dose: 12.5 mg/kg/injection, schedule: Q01DX001 (ip), vehicle: saline with Tween-80",102 % of control
same,T/C,"endpoint: mean survival time, dose: 25.0 mg/kg/injection, schedule: Q01DX001 (ip), vehicle: saline with Tween-80",105 % of control
same,T/C,"endpoint: mean survival time, dose: 50.0 mg/kg/injection, schedule: Q01DX001 (ip), vehicle: saline with Tween-80",100 % of control
CS(=O)(=O)/C(C#N)=N/O,T/C,"endpoint: mean survival time, dose: 50.0 mg/kg/injection, schedule: Q01DX001 (ip), vehicle: saline",103 % of control
same,T/C,"endpoint: mean survival time, dose: 100.0 mg/kg/injection, schedule: Q01DX001 (ip), vehicle: saline",98 % of control
same,T/C,"endpoint: mean survival time, dose: 200.0 mg/kg/injection, schedule: Q01DX001 (ip), vehicle: saline",101 % of control
Nc1nc(N)c2nc(CNc3ccc(C(=O)NCCCC(=O)O)cc3)cnc2n1 (tested in a mixture with another compound),T/C,"endpoint: mean survival time, dose: 1.0 mg/kg/injection, schedule: Q01DX009 (ip), vehicle: Klucel (hydroxypropylcellulose) (HPC)",97 % of control
same,T/C,"endpoint: mean survival time, dose: 5.0 mg/kg/injection, schedule: Q01DX009 (ip), vehicle: Klucel (hydroxypropylcellulose) (HPC)",102 % of control
same,T/C,"endpoint: mean survival time, dose: 10.0 mg/kg/injection, schedule: Q01DX009 (ip), vehicle: Klucel (hydroxypropylcellulose) (HPC)",108 % of control
same,T/C,"endpoint: mean survival time, dose: 20.0 mg/kg/injection, schedule: Q01DX009 (ip), vehicle: Klucel (hydroxypropylcellulose) (HPC)",102 % of control
CN(C)N=Nc1cccc(NC(N)=O)c1,T/C,"endpoint: mean survival time, dose: 19.75 mg/kg/injection, schedule: Q01DX009 (ip), vehicle: Klucel (hydroxypropylcellulose) (HPC)",114 % of control
same,T/C,"endpoint: mean survival time, dose: 79.0 mg/kg/injection, schedule: Q01DX009 (ip), vehicle: Klucel (hydroxypropylcellulose) (HPC)",87 % of control
COc1cccc2c1C(=O)c1c(O)c3c(c(O)c1C2=O)C[C@H](O)C[C@@H]3OC1CC(N)C(O)C(C)O1 (stereo not given in full),T/C,"endpoint: mean survival time, dose: 0.75 mg/kg/injection, schedule: Q01DX009 (ip), vehicle: saline",107 % of control
same,T/C,"endpoint: mean survival time, dose: 1.5 mg/kg/injection, schedule: Q01DX009 (ip), vehicle: saline",105 % of control
same,T/C,"endpoint: mean survival time, dose: 3.0 mg/kg/injection, schedule: Q01DX009 (ip), vehicle: saline",111 % of control
same,T/C,"endpoint: mean survival time, dose: 3.0 mg/kg/injection, schedule: Q01DX009 (ip), vehicle: water",121 % of control
same,T/C,"endpoint: mean survival time, dose: 6.0 mg/kg/injection, schedule: Q01DX009 (ip), vehicle: saline",104 % of control
same,T/C,"endpoint: mean survival time, dose: 12.0 mg/kg/injection, schedule: Q01DX009 (ip), vehicle: saline",115 % of control
same,T/C,"endpoint: mean survival time, dose: 12.0 mg/kg/injection, schedule: Q01DX009 (ip), vehicle: water",118 % of control
same,T/C,"endpoint: mean survival time, dose: 24.0 mg/kg/injection, schedule: Q01DX009 (ip), vehicle: water",152 % of control
CCCCCCCCCCCCCCCCn1cnc2c(Cl)ncnc21,T/C,"endpoint: mean survival time, dose: 12.5 mg/kg/injection, schedule: Q01DX005 (ip), vehicle: other",94 % of control
same,T/C,"endpoint: mean survival time, dose: 25.0 mg/kg/injection, schedule: Q01DX005 (ip), vehicle: other",91 % of control
same,T/C,"endpoint: mean survival time, dose: 50.0 mg/kg/injection, schedule: Q01DX005 (ip), vehicle: other",91 % of control
same,T/C,"endpoint: mean survival time, dose: 100.0 mg/kg/injection, schedule: Q01DX005 (ip), vehicle: other",92 % of control
same,T/C,"endpoint: mean survival time, dose: 200.0 mg/kg/injection, schedule: Q01DX005 (ip), vehicle: other",89 % of control
Nc1nc(Cl)c2ncn(C3CC(O)C(CO)C3)c2n1 (stereo not given),T/C,[7],106 % of control
same,T/C,[8],106 % of control
Nc1ccccc1-c1nc2ccncc2[nH]1,T/C,[9],100 % of control
same,T/C,[10],98 % of control
CCCCCCCCCCCCCCCCOc1ccc(C(=O)CC(=O)OC)cc1,T/C,"endpoint: mean survival time, dose: 100.0 mg/kg/injection, schedule: Q01DX001 (ip), vehicle: saline with Tween-80",86 % of control
same,T/C,"endpoint: mean survival time, dose: 200.0 mg/kg/injection, schedule: Q01DX001 (ip), vehicle: saline with Tween-80",89 % of control
same,T/C,"endpoint: mean survival time, dose: 400.0 mg/kg/injection, schedule: Q01DX001 (ip), vehicle: saline with Tween-80",91 % of control
COc1ccc(N=C/C=C/c2ccccc2)cc1,T/C,[5],97 % of control
same,T/C,"endpoint: mean survival time, dose: 100.0 mg/kg/injection, schedule: Q04DX003 (ip), vehicle: saline sonified",96 % of control
same,T/C,[6],89 % of control
same,T/C,"endpoint: mean survival time, dose: 200.0 mg/kg/injection, schedule: Q04DX003 (ip), vehicle: saline sonified",103 % of control
same,T/C,[11],90 % of control
same,T/C,"endpoint: mean survival time, dose: 400.0 mg/kg/injection, schedule: Q04DX003 (ip), vehicle: saline sonified",97 % of control
CCCCCCCCCCCC[S+](C)C,T/C,"endpoint: mean survival time, dose: 10.0 mg/kg/injection, schedule: Q04DX003 (ip), vehicle: Klucel (hydroxypropylcellulose) (HPC)",107 % of control
same,T/C,"endpoint: mean survival time, dose: 20.0 mg/kg/injection, schedule: Q04DX003 (ip), vehicle: Klucel (hydroxypropylcellulose) (HPC)",103 % of control
same,T/C,"endpoint: mean survival time, dose: 40.0 mg/kg/injection, schedule: Q04DX003 (ip), vehicle: Klucel (hydroxypropylcellulose) (HPC)",98 % of control
COC1OCC(O)C(O)C1O (stereo not given),T/C,[7],101 % of control
same,T/C,[8],98 % of control
same,T/C,"endpoint: mean survival time, dose: 400.0 mg/kg/injection, schedule: Q01DX009 (ip), vehicle: saline",98 % of control
Cc1ccc(Cl)cc1NS(=O)(=O)c1ccccc1,T/C,[5],94 % of control
same,T/C,[1],100 % of control
same,T/C,[6],96 % of control
same,T/C,[2],105 % of control
same,T/C,[11],94 % of control
same,T/C,"endpoint: mean survival time, dose: 400.0 mg/kg/injection, schedule: Q04DX003 (ip), vehicle: saline with Tween-80",105 % of control
O=C1OC(Cc2ccccc2)(c2ccccc2)c2ccccc21 (stereo not given),T/C,[1],88 % of control
same,T/C,[2],88 % of control
NCCNc1ccc(NCCN)c2c1C(=O)c1ccccc1C2=O,T/C,"endpoint: mean survival time, dose: 2.0 mg/kg/injection, schedule: Q01DX009 (ip), vehicle: acid diluted with saline",159 % of control
same,T/C,"endpoint: mean survival time, dose: 4.0 mg/kg/injection, schedule: Q01DX009 (ip), vehicle: acid diluted with saline",175 % of control
same,T/C,"endpoint: mean survival time, dose: 6.25 mg/kg/injection, schedule: Q01DX009 (ip), vehicle: distilled water + Tween-80",156 % of control
same,T/C,"endpoint: mean survival time, dose: 8.0 mg/kg/injection, schedule: Q01DX009 (ip), vehicle: acid diluted with saline",345 % of control
same,T/C,"endpoint: mean survival time, dose: 12.5 mg/kg/injection, schedule: Q01DX009 (ip), vehicle: distilled water + Tween-80",227 % of control
same,T/C,"endpoint: mean survival time, dose: 16.0 mg/kg/injection, schedule: Q01DX009 (ip), vehicle: acid diluted with saline",98 % of control
same,T/C,"endpoint: mean survival time, dose: 25.0 mg/kg/injection, schedule: Q01DX009 (ip), vehicle: distilled water + Tween-80",272 % of control
CCC(C)NCCO (stereo not given),T/C,[9],96 % of control
same,T/C,[10],104 % of control
same,T/C,"endpoint: mean survival time, dose: 300.0 mg/kg/injection, schedule: Q01DX001 (ip), vehicle: saline",104 % of control
C#CC(OC(C)=O)C1OC(n2cnc3c(Cl)nc(Cl)nc32)C(OC(C)=O)C1OC(C)=O (stereo not given),T/C,"endpoint: median survival time, dose: 12.5 mg/kg/injection, schedule: Q01DX005 (ip), vehicle: distilled water + Tween-80",109 % of control and 103 % of control
same,T/C,"endpoint: median survival time, dose: 25.0 mg/kg/injection, schedule: Q01DX005 (ip), vehicle: distilled water + Tween-80",107 % of control and 100 % of control
same,T/C,"endpoint: median survival time, dose: 50.0 mg/kg/injection, schedule: Q01DX005 (ip), vehicle: distilled water + Tween-80",103 % of control
same,T/C,"endpoint: median survival time, dose: 100.0 mg/kg/injection, schedule: Q01DX005 (ip), vehicle: distilled water + Tween-80",108 % of control and 111 % of control
same,T/C,"endpoint: median survival time, dose: 200.0 mg/kg/injection, schedule: Q01DX005 (ip), vehicle: distilled water + Tween-80",102 % of control and 111 % of control
